Data set [1] can be described thus: Mean arterial blood pressure and heart rate in spontaneously hypertensive rats. The conditions noted are these: 1.5 mg/kg intravenously. It is filed as in vivo. The procedure: Further, spontaneously hypertensive rats were dosed, intravenously, at a dose of 1.5 mg/kg, with a solution of one of the compounds of the invention (Compound E, Table I) and mean arterial blood pressure was monitored for 45 minutes using indwelling cannulae positioned in the tail arteries. At the end of the 15 minute infusion, systolic and diasystolic pressures had reached their nadirs and were each approximately 30 to 35 mm Hg below vehicle-treated controls. Thirty minutes following cessation of the infusion, systolic and diasystolic pressures remained approximately 20 mm Hg less than the controls. Also, heart rate was measured during the period blood pressure was monitored.

The test system of data set [2] is alpha3 receptor (dog saphenous vein). The experiment in a line: Alpha3 activity in dog saphenous vein: shift of BHT-920 dose-response curve. It is filed as cell-based. Particulars: for antagonism in the alpha3 test system (in words) / Kb: dog saphenous vein; for separation in the concentrations producing alpha2 and alpha3 effects: guinea pig vas deferens (alpha2) vs dog saphenous vein (alpha3); for Kb: read-out: KB alpha3 DSV, BHT-920 agonist. As for the experimental part:
(§1) The receptor dissociation constant (KB) for the antagonist was determined using the relationship [formula] (Furchgott, R. F., Handbook of Experimental Pharmacology, eds. Eichler, et al., pp. 283-335 (Springer 1972)). The KB value obtained at each antagonist concentration was averaged to obtain a mean KB for each experiment.
The dog saphenous vein (DSV) was used as the test system for measuring activity of the compounds at the alpha3 receptor. This test system has been shown a suitable preparation in which to characterize postsynaptic alpha2 (alpha3) adrenoceptors. Sullivan, A. T. and G. M. Drew, Arch. Pharmacol. 314:249-58 (1980). This test system is prepared by removing the lateral saphenous vein from an anesthetized dog and cutting the vein into segments of 10 mm in length. Each segment then is cut into a helical strip and mounted, in a tissue bath, between a stationary tissue holder and transducer with which isometric contractions are recorded as changes in grams of tension. Additional details of this methodology are found in Fowler, P. J., et al., J. Pharmacol. Exp. Ther. 229:712-18 (1984).
The alpha3 activity of the compounds of interest is determined by measuring shifts in the dose-response curve of a specific agonist induced by the tested compounds. The alpha2 specific agonist, BHT-920, was used in testing the compounds listed in Table I. Data are reported as KB, defined above.
(§2) The results are expressed in nanomolar concentrations. Compound (D) is the prior art compound mentioned above; compounds (E) and (F) are compounds of the present invention.

The target of data set [3] is T1, alpha2 receptor (guinea pig vas deferens) (Cavia porcellus, UniProt Q60474).
T1 construct: both vasa deferentia were removed and placed in a dish; from tissue; host or cells: isolated vas deferens of male guinea pigs
T1 sequence (Q60474 1-464): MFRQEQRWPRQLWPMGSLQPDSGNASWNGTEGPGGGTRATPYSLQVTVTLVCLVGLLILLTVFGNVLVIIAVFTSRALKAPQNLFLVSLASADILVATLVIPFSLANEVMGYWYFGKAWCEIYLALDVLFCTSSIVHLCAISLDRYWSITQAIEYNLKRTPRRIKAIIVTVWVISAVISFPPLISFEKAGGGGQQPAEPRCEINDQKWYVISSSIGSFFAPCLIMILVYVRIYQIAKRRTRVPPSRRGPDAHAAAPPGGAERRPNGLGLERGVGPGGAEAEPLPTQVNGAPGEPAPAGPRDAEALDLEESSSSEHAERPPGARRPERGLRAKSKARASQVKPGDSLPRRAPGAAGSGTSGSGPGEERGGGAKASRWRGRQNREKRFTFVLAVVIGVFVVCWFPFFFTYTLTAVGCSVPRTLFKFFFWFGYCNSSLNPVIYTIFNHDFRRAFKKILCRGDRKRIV
The data set is described as follows: Alpha2 activity in isolated, superfused guinea pig vas deferens: stimulated/basal 3H-norepinephrine release. The class given is cell-based. Particulars: for alpha2 effects in guinea pig vas deferens (in words): up to the highest tested concentration.
Excerpt: The second system utilized in determining the alpha2 activity of the compounds of interest is the isolated, superfused guinea pig vas deferens (Vas Def). From male (300-600 g) guinea pigs sacrificed by administration of a lethal amount of pentobarbital, both vasa deferentia were removed and placed in a dish containing a cold nutrient-buffer solution. The tissue was cleaned and the fibrous sheath removed gently. The ends were trimmed to yield segments about 4 cm in length and 4-0 silk ties attached to each end. The vasa deferentia then were incubated in 10 ml of nutrient-buffer solution containing […] of ^3 H-norepinephrine. Tissue was incubated at 37° C. for 30 minutes with continuous gassing with 95% O2, 5% CO2. After incubation, the tissue was mounted in a superfusion apparatus constructed of 3 mm ID glass tubing. One end was connected, via the silk tie, to a plug constructed of silicone rubber and polyethylene with a platinum wire hook. The other tie was connected to a force-displacement transducer. About 1 g of tension was applied to the tissue, and superfusion with nutrient-buffer solution initiated at 2 ml/minute, using a peristaltic pump. The chambers had platinum electrodes fused through the glass at the top and bottom to allow field stimulation of the tissue.
Before compound testing, tissues were equilibrated for at least 2 hours, during which time stimulation (3 Hz, 0.7 msec pulse duration, 80 V) was applied for 2 minutes at 30 minute intervals. Following this equilibration period, three control stimulations were performed. For each stimulation, two effluent samples were collected directly into 20 ml scintillation vials; one prior to, and one during field stimulation. The basal sample was collected during a 2 minute interval immediately prior to stimulation. The stimulation sample was collected beginning 30 seconds after initiation of stimulation, and continuing for 30 seconds following termination of the field stimulation. This lag period is to allow for the dead space in the superfusion chamber. This collection-stimulation procedure was repeated at 20 minute intervals. Following the third control collection, compound was added into the superfusion flow; 20 minutes later the collection-stimulation was repeated in the presence of compound. Compound concentration was increased ten-fold following each stimulation, and the cycle repeated until four drug concentrations had been tested. A final stimulation-collection was performed after termination of compound superfusion.
Ten ml of standard scintillation fluid (Aquasol-II) was added to all samples, and the DPM values were determined on a beta-scintillation counter. The stimulated/basal release ratio was determined for each pair. The stimulated/basal ratios for the three initial control collections were averaged to obtain a mean control ratio. The compound effect was determined by comparing the stimulated/basal ratio in the presence of increasing compound concentration to the mean control ratio. The EC50 was defined as the compound concentration producing a 50% increase in the stimulated/basal release ratio.
as §2

Data set [4] concerns alpha1 adrenoceptor (rabbit aorta). The data set is described as follows: Alpha1 activity in rabbit aorta segments: antagonism of norepinephrine contraction. The conditions noted are these: for Kb: read-out: KB alpha1 Aorta, norepinephrine agonist. The class given is cell-based. The procedure:
Alpha1 activity was determined using the rabbit aorta. Male New Zealand White rabbits (2-4 Kg) were euthanized by cervical concussion. A 4 cm portion of the thoracic aorta was removed and placed in a dish of cold (10° C.) Krebs-Hensleit solution. The tissue was cleaned of fat and connective tissue and cut into segments of approximately 3 mm in length. These segments were suspended in 10 ml tissue baths via hangers constructed of 0.25 mm tungsten wire. One hanger was fixed to a support in the bath, the other attached via silk thread to a force-displacement transducer.
Tissue segments were equilibrated for 2 hours prior to drug testing, during which time basal tension was maintained at 2 gm. Tissues were washed at 30 minute intervals during this equilibration period. The Krebs-Hensleit solution contained cocaine (6 μM) to block neuronal uptake and propranolol (1 μM) to block beta-adrenoceptors. Tissues were usually challenged once with norepinephrine (0.1 μM) during the equilbration period to check for viability.
A cumulative concentration-response curve to norepinephrine was obtained in each aortic segment. Following washout of norepinephrine, the alpha adrenoceptor antagonist to be tested was added to the bath. After the tissue had been in contact with the antagonist for 30-60 minutes, the norepinephrine concentration response-curve was repeated in the presence of antagonist. The tissue was then washed again, and a tenfold higher concentration of antagonist added. Following equilibration (30-60 minutes), a third norepinephrine concentration-response curve was determined in the presence of the antagonist.
as §1, §2

The target of data set [5] is T2, alpha2 receptor (guinea pig left atrium) (Cavia porcellus, UniProt Q60474).
T2 construct: The left atrium is separated, dissected free of extraneous tissue; from tissue; host or cells: isolated left atrium of male guinea pig
T2 sequence (Q60474 1-464): T1 sequence (Q60474 1-464)
The experiment in a line: Alpha2 activity in isolated, superfused guinea pig left atrium: antagonism of clonidine. The class given is cell-based. Particulars: for alpha2 effects in guinea pig atrium (in words): up to the highest tested concentration. The procedure:
as §1
One of the two systems employed to determine alpha2 activity of the compounds was the isolated, superfused guinea pig left atrium. Briefly, the heart is removed from a pentobarbital-anesthetized male guinea pig. The left atrium is separated, dissected free of extraneous tissue and mounted in a 2 ml superfusion chamber. The tissue is paced at 60 pulse/minute and the sympathetic nerves excited at 6 minute intervals by field stimulation. The response to nerve stimulation is measured as the difference in contractile force between the basal contraction and peak contraction following a nerve stimulation. A concentration-response curve for clonidine (a known alpha2 […]) is prepared by administering increasing concentrations of clonidine following each successive stimulation. The tissue then is superfused for thirty minutes with the alpha-adrenoceptor antagonist to be tested and the clonidine concentration-effect curve is repeated in the presence of antagonist. Data are reported as KB, defined above. Additional details of this test system are found in Hieble, J. P. and R. G. Pendleton, Arch. Pharmacol., 309:217-224 (1979).
as §2

Setting [6] is: thirty minutes following cessation of the infusion.

This note sets out measurements from patent US4683229A, “6-halo-9-alkenyleneoxy-3-alkyl-2,3,4,5-tetrahydro-(1H-3)-benzazepines and their use as selective alpha-adrenergic receptor antagonists” (SmithKline Beckman Corporation, priority 1986, dated 1987).

SMILES strings stand for the structures. Entries after “also recorded” stand apart in the source; their conditions may differ. Read-outs that look alike come from different tables or passages of the source.

On to `CC(C)=CCOc1ccc(Cl)c2c1CCN(C)CC2` [Compound E, 9-(3-methyl-2-butenyloxy)-6-chloro-3-methyl-2,3,4,5-tetrahydro-1H-3-benzazepine], for which, in data set [1] (heart rate measured during blood pressure monitoring), the “reflex tachycardia (heart rate)” value was “No statistically significant reflex tachycardia”. Further, in data set [1] (setting [6]), the “diastolic pressure less than controls, after infusion” value is “approximately 20 mm Hg” and the “systolic pressure less than controls, after infusion” value is on record as “approximately 20 mm Hg”. In data set [2], the “antagonism in the alpha3 test system (in words)” value is listed as “potent antagonists”; the “separation in the concentrations producing alpha2 and alpha3 effects” value is ≥ 200 fold; the Kb is 37 nM. In data set [3], the EC50 is > 10000 nM and the “alpha2 effects in guinea pig vas deferens (in words)” value was “no alpha2 effects”. Besides, in data set [4], the “alpha1 activity compared among compounds D, E and F (in words)” value is on record as “similar”; the Kb stood at 150 nM. Moreover, in data set [5], the Kb was > 10000 nM and the “alpha2 effects in guinea pig atrium (in words)” value is listed as “no alpha2 effects”.
For `C=CCOc1ccc(Cl)c2c1CCN(C)CC2.Cl` [D, 9-allyloxy-6-chloro-3-methyl-2,3,4,5-tetrahydro-1H-3-benzazepine hydrochloride, reference compound], the “alpha3 adrenoceptor selectivity vis-a-vis alpha2 (in words)” value in data set [2] (alpha3 vs alpha2, hydrochloride) is “does not approach the high degree of specificity exhibited by the presently invented compounds; also recorded: insignificant alpha3 -adrenoceptor selectivity”. Moreover, in data set [2], the “separation in the concentrations producing alpha2 and alpha3 effects” value was “four”; the Kb came out at 54 nM. Moreover, in data set [3], the EC50 is 224 nM and the “alpha2 effects in guinea pig vas deferens (in words)” value is recorded as “significant activity at the alpha2 receptor”. Further, in data set [4], the “alpha1 activity compared among compounds D, E and F (in words)” value is “similar”; the Kb stood at 150 nM. In addition, in data set [5], the Kb amounted to 903 nM and the “alpha2 effects in guinea pig atrium (in words)” value was “significant activity at the alpha2 receptor”.
For `CC=COc1ccc(Cl)c2c1CCN(C)CC2` [F, 9-(1-propenyloxy)-6-chloro-3-methyl-2,3,4,5-tetrahydro-1H-3-benzazepine], in data set [2], the “antagonism in the alpha3 test system (in words)” value is “potent antagonists” and the Kb was 100 to 200 nM. Further, the EC50 in data set [3] (guinea pig vas deferens, concentration producing a 50% increase in the stimulated/basal release ratio, read-out: EC50 alpha2 Vas Def) is > 10000 nM. Besides, the “alpha2 effects in guinea pig vas deferens (in words)” value in data set [3] was “no alpha2 effects”. For the same compound, in data set [4], the “alpha1 activity compared among compounds D, E and F (in words)” value was “similar”; the Kb worked out at 31 nM. Further, the Kb in data set [5] (guinea pig left atrium, clonidine, read-out: KB alpha2 Atrium) was > 1000 nM. In addition, the “alpha2 effects in guinea pig atrium (in words)” value in data set [5] was “no alpha2 effects”.
